Literature values as cited in US8906604B2, “Store-operated calcium cellular assay” (National Center for Biological Sciences, priority 2009, dated 2014).
pKd: −log10 of the molar value.

Conditions: in Drosophila S2 cells; published value (Hardie et al. 1996); read-out: Kd value for Indo-1

pKd: 5.94
SMILES: Cc1ccc(N(CC(=O)O)CC(=O)O)c(OCCOc2cc(-c3cc4ccc(C(=O)O)cc4[nH]3)ccc2N(CC(=O)O)CC(=O)O)c1 [Indo-1]
